Test results taken from patent US20190209567A1, “A Specific Trifluoroethyl Quinoline Analogue For Use In The Treatment of APDS” (UCB Biopharma SPRL, priority 2016, published 2019).
pIC50: −log10 of the molar value. Where two headings read alike, the source gives them in different places.

Key:
[1] = tested on: pAKT^S473 (PI3K signalling) in T cell lymphoblasts; assay: pAKT^S473 expression in T cell lymphoblast cultures by flow cytometry, with and without OKT3 activation; format: cell-based, human; settings: for pIC50: Homo sapiens, T-cell
Description: (§1) The activity of N—{(R)-1-[8-Chloro-2-(1-oxypyridin-3-yl)quinolin-3-yl]-2,2,2-trifluoroethyl}pyrido[3,2-d]pyrimidin-4-ylamine [hereinafter referred to as “Compound (A)”] on PI3K signalling was assessed by measuring levels of either phosphorylated serine 473 of AKT (pAKT^S473) or phosphorylated serine 235/236 of ribosomal protein S6 (pS6^S235/236) using flow cytometry. The results obtained are depicted in the accompanying drawings, in which:
Analysis of phosphorylated AKT at Ser 473 (pAKT^S473) levels in T cell lymphoblast cultures by flow cytometry was performed with peripheral blood lymphocytes from healthy donors, and from APDS1 and APDS2 patients, with and without T cell receptor activation.
Generation of T cell lymphoblasts was performed in accordance with the method described by M-C. Deau et al. in J. Clin. Invest., 2014, 124, 3923-3928. In brief, peripheral blood mononuclear cells were isolated by Ficoll-Paque density gradient centrifugation (Pharmacia Biotech; catalogue no. #171-44003) and washed twice with RPMI 1640 GlutaMax medium (Invitrogen). T cell lymphoblasts were obtained by stimulating 1×10^6 cells per mL in RPMI 1640 GlutaMax medium supplemented with 10% human AB serum, penicillin/streptomycin (Invitrogen), PMA (phorbol 12-myristate 13-acetate; 20 ng/mL; Sigma-Aldrich) and ionomycin (1 μmol/L). After 2 to 3 days of activation, viable cells were separated by Ficoll-Paque density-gradient centrifugation and washed twice with RPMI 1640 GlutaMax medium, then cultured in RPMI 1640 GlutaMax medium supplemented with 10% human AB serum and 100 U/mL pro-IL2.
Analysis of phosphorylated AKT at Ser 473 levels in T cell lymphoblast cultures was performed once sufficient cells were available for the analysis (e.g. 6-12 days after starting the culture with pro-IL2).
The activity of Compound (A) was assessed in (i) the absence or (ii) the presence of T cell activation by receptor cross-linking with OKT3:
(i) Incubation of APDS1 and APDS2 patient cells for 30 minutes with Compound (A) at different concentrations (0, 1, 3, 10, 30, 100 and 200 nM). A positive control for pAKT staining (simulated cells with OKT3) was included (8×10^6 cells/patient).
(ii) Incubation of APDS1 and APDS2 patient cells for 30 minutes with Compound (A) at different concentrations (0, 1, 3, 10, 30, 100 and 200 nM) stimulated with anti-CD3 (OKT3; T cell receptor activation).
Corresponding assays were performed with T cell lymphoblasts derived from healthy donors (CTRL).

[2] = tested on: pS6^S235/236 (PI3K signalling) in T cell subsets in whole blood; assay: Ex vivo pS6^S235/236 expression in T cell subsets in whole blood by flow cytometry; format: cell-based, human; settings: for pIC50: Homo sapiens, T-cell
Description: as §1
The levels of pS6^S235/236 in different T cell (CD3+CD4+; CD3+CD8+) subsets in total blood from healthy donors, and from APDS1 and APDS2 patients, were analyzed by flow cytometry. The blood was incubated ex vivo for 45 minutes at 37° C. with different doses of Compound (A) (0, 10, 30, 100, 300, 1000 and 2000 nM).
The phosphorylation of ribosomal protein S6 at Ser 235/236 (pS6^S235/236) in cells from healthy donors, and from APDS1 and APDS2 patients, was analyzed ex vivo in the presence and absence of Compound (A) (10-2000 nM) in different T cell (CD3+CD4+; CD3+CD8+) subsets. As noted above, total blood was incubated ex vivo for 45 minutes at 37° C.
Data were generated with blood from two (2) healthy donors, three (3) APDS1 patients and one (1) APDS2 patient.

[3] = APD001 Phase 1b open-label 12-week clinical study in APDS1 and APDS2 patients; format: in vivo, human; settings: 12 weeks of treatment
Description: APD001 is an ongoing Phase 1b, multicentre, open-label, 12-week study to assess the efficacy, safety and tolerability of Compound (A) in male and female adolescents (aged from 12 to 18 years) and adults with APDS1 and APDS2.

- pIC50 ([1]; APDS1 and APDS2 patient-derived T cell lymphoblasts, absence of T cell activation by OKT3, read-out: IC50 range, pAKT expression): 7.70 to 8.52
- pIC50 ([1]; APDS1 and APDS2 patient-derived T cell lymphoblasts, presence of T cell activation by OKT3, read-out: IC50 range, pAKT expression): 7.30 to 8.15
- pIC50 ([1]; T lymphoblasts from 3 APDS1 patients, OKT3 +, read-out: Geomean IC50, inhibition of pAKT^S473 expression): 7.68
- pIC50 ([1]; T lymphoblasts from 3 APDS1 patients, OKT3 +, read-out: Range of IC50, inhibition of pAKT^S473 expression): 7.30 to 8.15
- pIC50 ([1]; T lymphoblasts from 3 APDS1 patients, OKT3 −, read-out: Geomean IC50, inhibition of pAKT^S473 expression): 8.10
- pIC50 ([1]; T lymphoblasts from 3 APDS1 patients, OKT3 −, read-out: Range of IC50, inhibition of pAKT^S473 expression): 7.92 to 8.52
- pIC50 ([1]; T lymphoblasts from 3 APDS2 patients, OKT3 +, read-out: Geomean IC50, inhibition of pAKT^S473 expression): 7.55
- pIC50 ([1]; T lymphoblasts from 3 APDS2 patients, OKT3 +, read-out: Range of IC50, inhibition of pAKT^S473 expression): 7.48 to 7.68
- pIC50 ([1]; T lymphoblasts from 3 APDS2 patients, OKT3 −, read-out: Geomean IC50, inhibition of pAKT^S473 expression): 7.89
- pIC50 ([1]; T lymphoblasts from 3 APDS2 patients, OKT3 −, read-out: Range of IC50, inhibition of pAKT^S473 expression): 7.70 to 8.10
- pIC50 ([2]; CD3+ and CD8+ cells, one APDS2 patient, based on concentration-response curves, read-out: IC50, inhibition of pS6^S235/236 expression): ≥ 7.00
- pIC50 ([2]; CD3+ cells, 3 APDS1 patients, read-out: Geomean IC50 (adjusted for free concentration), pS6^S235/236 expression): 7.29
- pIC50 ([2]; CD3+ cells, 3 APDS1 patients, read-out: Range of IC50 (adjusted for free concentration), pS6^S235/236 expression): 7.17 to 7.44
- pIC50 ([2]; CD4+ cells, 3 APDS1 patients, read-out: Geomean IC50 (adjusted for free concentration), pS6^S235/236 expression): 7.39
- pIC50 ([2]; CD4+ cells, 3 APDS1 patients, read-out: Range of IC50 (adjusted for free concentration), pS6^S235/236 expression): 7.25 to 7.54
- pIC50 ([2]; CD8+ cells, 3 APDS1 patients, read-out: Geomean IC50 (adjusted for free concentration), pS6^S235/236 expression): 7.25
- pIC50 ([2]; CD8+ cells, 3 APDS1 patients, read-out: Range of IC50 (adjusted for free concentration), pS6^S235/236 expression): 7.14 to 7.40
Structure (SMILES): [O-][n+]1cccc(-c2nc3c(Cl)cccc3cc2[C@@H](Nc2ncnc3cccnc23)C(F)(F)F)c1 [Compound (A), N—{(R)-1-[8-Chloro-2-(1-oxypyridin-3-yl)quinolin-3-yl]-2,2,2-trifluoroethyl}pyrido[3,2-d]pyrimidin-4-ylamine]
- pIC50 ([1]; T lymphoblasts from 3 healthy donors, OKT3 +, read-out: Geomean IC50, inhibition of pAKT^S473 expression): 7.80
- pIC50 ([1]; T lymphoblasts from 3 healthy donors, OKT3 +, read-out: Range of IC50, inhibition of pAKT^S473 expression): 7.30 to 8.05
- Inhibition of pAKT^S473 expression (in words) ([1]; basal and activated T lymphoblast cultures): potently inhibited
- Inhibition of pS6^S235/236 expression (in words) ([2]; CD3+ and CD8+ cells, one APDS2 patient): showed potent inhibition
- Inhibition of pS6^S235/236 signal (in words) ([2]; three T cell subsets, three APDS1 patients): showed inhibition
- Tolerability ([3]; APDS patients): well tolerated
- Clinical outcome ([3]; three APDS patients): some clinical and immunological improvements together with disease activity improvement
